The target in data set [1] is Protein cereblon/Stimulator of interferon genes protein (Homo sapiens, UniProt Q96SW2+Q86WV6). In words: PROTAC activity at CRBN/STING in human THP-1 cells assessed as induction of STING degradation at 5 uM measured after 24 hrs by Western blotting analysis relative to control. It counts as cell-based. In general terms: In western blotting, separated proteins are transferred to a membrane and probed.

Data set [2] in a line: Water solubility of the compound at 2 mg by HPLC analysis. It counts as physicochemical.
Data set [3] can be described thus: Metabolic stability in human liver microsomes assessed as half life. The data set is classed as ADME, Microsome.
A short description of data set [4]: Metabolic stability in human liver microsomes assessed as intrinsic clearance per gram of protein. The data set is classed as ADME, Microsome. (Liver microsomes are a subcellular fraction often used to study metabolism.)
The nature of data set [5]: Metabolic stability in human liver microsomes assessed as metabolic factor relative to control. It counts as ADME, Microsome.
Data set [6] addresses von Hippel-Lindau disease tumor suppressor/Stimulator of interferon genes protein (Homo sapiens, UniProt P40337+Q86WV6). In words: PROTAC activity at VHL/STING (unknown origin). The data set is classed as protein assay.

We go through 30 molecules from ChEMBL document CHEMBL6182863, “Discovery of novel rigid STING PROTAC degraders as potential therapeutics for acute kidney injury” (Eur J Med Chem, 2025).

≈ marks a conversion by molar mass, not a printed value. Calls of active or inactive are those of the source. No cut-off for these calls is given here.

Sequence of Protein cereblon/Stimulator of interferon genes protein (Q86WV6 whole entry, looked up): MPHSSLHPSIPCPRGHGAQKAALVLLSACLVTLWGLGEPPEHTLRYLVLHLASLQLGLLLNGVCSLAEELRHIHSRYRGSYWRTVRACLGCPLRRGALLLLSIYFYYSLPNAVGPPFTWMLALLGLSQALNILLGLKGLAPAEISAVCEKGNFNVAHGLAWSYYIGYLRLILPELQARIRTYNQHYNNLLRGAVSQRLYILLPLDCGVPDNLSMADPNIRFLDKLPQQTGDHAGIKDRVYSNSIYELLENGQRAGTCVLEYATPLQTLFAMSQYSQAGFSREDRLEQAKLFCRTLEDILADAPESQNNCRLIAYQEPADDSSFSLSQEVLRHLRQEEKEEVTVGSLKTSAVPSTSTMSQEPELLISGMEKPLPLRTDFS
Sequence of Protein cereblon/Stimulator of interferon genes protein (Q96SW2 whole entry, looked up): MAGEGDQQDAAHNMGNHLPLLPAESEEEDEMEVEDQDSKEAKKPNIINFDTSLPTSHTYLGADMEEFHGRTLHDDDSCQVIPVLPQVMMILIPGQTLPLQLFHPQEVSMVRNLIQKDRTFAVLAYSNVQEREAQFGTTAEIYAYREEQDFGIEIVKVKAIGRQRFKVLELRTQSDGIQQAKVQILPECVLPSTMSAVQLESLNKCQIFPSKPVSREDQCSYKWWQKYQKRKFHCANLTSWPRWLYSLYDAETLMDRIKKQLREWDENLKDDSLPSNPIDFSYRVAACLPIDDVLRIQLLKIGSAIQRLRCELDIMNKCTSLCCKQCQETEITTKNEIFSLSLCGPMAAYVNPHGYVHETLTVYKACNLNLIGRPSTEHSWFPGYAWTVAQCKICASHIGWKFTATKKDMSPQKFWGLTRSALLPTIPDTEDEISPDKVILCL
Sequence of von Hippel-Lindau disease tumor suppressor/Stimulator of interferon genes protein (P40337 whole entry): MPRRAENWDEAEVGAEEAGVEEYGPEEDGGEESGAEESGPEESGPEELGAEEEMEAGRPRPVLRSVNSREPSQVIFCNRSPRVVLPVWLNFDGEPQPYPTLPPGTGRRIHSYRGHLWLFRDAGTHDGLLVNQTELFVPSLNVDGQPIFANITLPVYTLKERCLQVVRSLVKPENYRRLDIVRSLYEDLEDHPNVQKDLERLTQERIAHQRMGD
Sequence of von Hippel-Lindau disease tumor suppressor/Stimulator of interferon genes protein (Q86WV6 whole entry): as the sequence (Q86WV6 whole entry, looked up) above

As to `O=C1CCC(N2C(=O)c3cccc(N4CCC(N5CCN(C(=O)CCCC(=O)Nc6ccc(NC(=O)c7ccc([N+](=O)[O-])o7)cc6)CC5)C4)c3C2=O)C(=O)N1` (stereo not drawn), the Activity in data set [1] came out at 40.5%.

As to `O=C1CCC(N2C(=O)c3cccc(N4CCN(CC5CN(C(=O)CCC(=O)Nc6ccc(NC(=O)c7ccc([N+](=O)[O-])o7)cc6)C5)CC4)c3C2=O)C(=O)N1` (stereo not drawn), in data set [1], the Activity was 40.7%.

Consider `O=C(/C=C/C(=O)N1CCN(C2CCN(c3ccc4c(c3)C(=O)N(C3CCC(=O)NC3=O)C4=O)C2)CC1)Nc1ccc(NC(=O)c2ccc([N+](=O)[O-])o2)cc1` (stereo not drawn), for which, in data set [1], the result was inactive.

For `O=C1CCC(N2C(=O)c3cccc(N4CCN(CC5CCN(C(=O)CCC(=O)Nc6ccc(NC(=O)c7ccc([N+](=O)[O-])o7)cc6)CC5)CC4)c3C2=O)C(=O)N1` (stereo not drawn), the outcome in data set [1] was inactive.

A word on the solubility: it is the dissolved amount per volume that the medium holds. As to `O=C(/C=C/C(=O)N1CCN(C2CCN(c3cccc4c3C(=O)N(C3CCC(=O)NC3=O)C4=O)C2)CC1)Nc1ccc(NC(=O)c2ccc([N+](=O)[O-])o2)cc1` (stereo not drawn), the Activity in data set [1] is 58%. The same molecule registered a solubility in data set [2] of 6.098 µg/mL (≈ 8.25 µM).

In the case of `O=C1CCC(N2C(=O)c3cccc(N4CCC(N5CCN(C(=O)COCC(=O)Nc6ccc(NC(=O)c7ccc([N+](=O)[O-])o7)cc6)CC5)C4)c3C2=O)C(=O)N1` (stereo not drawn), in data set [1], the outcome was inactive.

For `O=C(/C=C/C(=O)N1CCN(CC2CCN(c3ccc4c(c3)C(=O)N(C3CCC(=O)NC3=O)C4=O)C2)CC1)Nc1ccc(NC(=O)c2ccc([N+](=O)[O-])o2)cc1` (stereo not drawn), the Activity in data set [1] came to 73.6%.

Take `O=C(/C=C/C(=O)N1CCN(CC2CCCN2c2cccc3c2C(=O)N(C2CCC(=O)NC2=O)C3=O)CC1)Nc1ccc(NC(=O)c2ccc([N+](=O)[O-])o2)cc1` (stereo not drawn): the Activity in data set [1] came to 77.7%. In data set [2], this molecule returned a solubility of 2.872 µg/mL (≈ 3.82 µM).

For `O=C(/C=C/C(=O)N1CC(CN2CCN(c3cccc4c3C(=O)N(C3CCC(=O)NC3=O)C4=O)CC2)C1)Nc1ccc(NC(=O)c2ccc([N+](=O)[O-])o2)cc1` (stereo not drawn), in data set [1], the Activity worked out at 43.6%. In data set [2], this molecule came in with a solubility of 6.485 µg/mL (≈ 8.78 µM).

For orientation: half-life means the time in which the quantity being followed falls by half. Consider `O=C(/C=C/C(=O)Nc1ccc(NC(=O)c2ccc([N+](=O)[O-])o2)cc1)NCCCCCCNc1cccc2c1C(=O)N(C1CCC(=O)NC1=O)C2=O` (stereo not drawn), for which the figures for the Activity in data set [1] and in data set [5] were 59.2% and 1.3%, respectively. The half-life in data set [3] worked out at 1.41 min. Moreover, the CLint in data set [4] turned out to be 1490 mL/min/g. The solubility in data set [2] turned out to be 0.854 µg/mL (≈ 1.22 µM).

For the molecule `O=C(/C=C/C(=O)N1CC(CN2CCN(c3ccc4c(c3)C(=O)N(C3CCC(=O)NC3=O)C4=O)CC2)C1)Nc1ccc(NC(=O)c2ccc([N+](=O)[O-])o2)cc1` (stereo not drawn), in data set [1], the outcome was inactive.

For the molecule `O=C(/C=C/C(=O)N1CCC(CN2CCN(c3ccc4c(c3)C(=O)N(C3CCC(=O)NC3=O)C4=O)CC2)CC1)Nc1ccc(NC(=O)c2ccc([N+](=O)[O-])o2)cc1` (stereo not drawn), in data set [1], the Activity is 52.3%.

Turning to `O=C1CCC(N2C(=O)c3cccc(N4CCC(N5CCN(C(=O)CCC(=O)Nc6ccc(NC(=O)c7ccc([N+](=O)[O-])o7)cc6)CC5)C4)c3C2=O)C(=O)N1` (stereo not drawn), in data set [1], the result was inactive.

For `O=C1CCC(N2C(=O)c3cccc(N4CCC(CN5CCN(C(=O)CCCC(=O)Nc6ccc(NC(=O)c7ccc([N+](=O)[O-])o7)cc6)CC5)C4)c3C2=O)C(=O)N1` (stereo not drawn), in data set [1], the Activity worked out at 36.3%.

In the case of `O=C(/C=C/C(=O)N1CCN(C2CCN(c3cccc4c3C(=O)N(C3CCC(=O)NC3=O)C4=O)CC2)CC1)Nc1ccc(NC(=O)c2ccc([N+](=O)[O-])o2)cc1` (stereo not drawn), in data set [1], the Activity was determined as 25.3%.

For `CCn1nc(C)cc1C(=O)Nc1nc2cc(C(=O)NCCCCCCCCC(=O)N[C@@H](C(=O)N3C[C@H](O)C[C@H]3C(=O)NCc3ccc(-c4scnc4C)cc3)C(C)(C)C)cc(OC)c2n1C/C=C/Cn1c(NC(=O)c2cc(C)nn2CC)nc2cc(C(N)=O)cc(OCCCN3CCOCC3)c21`, the DC50 in data set [6] was 227 nM.

As to `O=C1CCC(N2C(=O)c3cccc(N4CCN(CC5CCN(C(=O)CCCC(=O)Nc6ccc(NC(=O)c7ccc([N+](=O)[O-])o7)cc6)CC5)CC4)c3C2=O)C(=O)N1` (stereo not drawn), the result in data set [1] was inactive.

With `O=C1CCC(N2C(=O)c3cccc(N4CCN(CC5CN(C(=O)COCC(=O)Nc6ccc(NC(=O)c7ccc([N+](=O)[O-])o7)cc6)C5)CC4)c3C2=O)C(=O)N1` (stereo not drawn), the outcome in data set [1] was inactive.

`O=C1CCC(N2C(=O)c3cccc(N4CCN(CC5CCN(C(=O)COCC(=O)Nc6ccc(NC(=O)c7ccc([N+](=O)[O-])o7)cc6)CC5)CC4)c3C2=O)C(=O)N1` (stereo not drawn): in data set [1], the Activity stood at 32.6%.

For `O=C(/C=C/C(=O)N1CCN(CC2CCN(c3cccc4c3C(=O)N(C3CCC(=O)NC3=O)C4=O)CC2)CC1)Nc1ccc(NC(=O)c2ccc([N+](=O)[O-])o2)cc1` (stereo not drawn), in data set [1], the Activity came to 43.6%.

As to `O=C(/C=C/C(=O)N1CCC(N2CCN(c3cccc4c3C(=O)N(C3CCC(=O)NC3=O)C4=O)CC2)CC1)Nc1ccc(NC(=O)c2ccc([N+](=O)[O-])o2)cc1` (stereo not drawn), in data set [1], the outcome was inactive.

`O=C(/C=C/C(=O)N1CCN(CC2CCCN2c2ccc3c(c2)C(=O)N(C2CCC(=O)NC2=O)C3=O)CC1)Nc1ccc(NC(=O)c2ccc([N+](=O)[O-])o2)cc1` (stereo not drawn): the Activity in data set [1] was 72.3%.

Take `O=C(/C=C/C(=O)N1CC(N2CCN(c3cccc4c3C(=O)N(C3CCC(=O)NC3=O)C4=O)CC2)C1)Nc1ccc(NC(=O)c2ccc([N+](=O)[O-])o2)cc1` (stereo not drawn): in data set [1], the Activity turned out to be 30.3%.

In turn, `Cc1ncsc1-c1ccc(CNC(=O)[C@@H]2C[C@@H](O)CN2C(=O)[C@@H](NC(=O)CCC(=O)NCCCNC(=O)c2cccc(S(=O)(=O)n3cc(C(=O)NCCCCCC(=O)Oc4ccc(NC(=O)c5ccc(-c6ccccc6)cc5)cc4NS(=O)(=O)c4ccc(F)cc4)ccc3=O)c2)C(C)(C)C)cc1` displayed a DC50 in data set [6] of 530 nM.

On to `O=C(/C=C/C(=O)N1CCN(c2cccc3c2C(=O)N(C2CCC(=O)NC2=O)C3=O)CC1)Nc1ccc(NC(=O)c2ccc([N+](=O)[O-])o2)cc1` (stereo not drawn), for which the Activity in data set [1] stood at 20.3%.

Turning to `O=C1CCC(N2C(=O)c3cccc(N4CCC(CN5CCN(C(=O)CCC(=O)Nc6ccc(NC(=O)c7ccc([N+](=O)[O-])o7)cc6)CC5)C4)c3C2=O)C(=O)N1` (stereo not drawn), the Activity in data set [1] turned out to be 44.7%.

For `O=C1CCC(N2C(=O)c3cccc(N4CCN(CC5CN(C(=O)CCCC(=O)Nc6ccc(NC(=O)c7ccc([N+](=O)[O-])o7)cc6)C5)CC4)c3C2=O)C(=O)N1` (stereo not drawn), the result in data set [1] was inactive.

As to `O=C(/C=C/C(=O)N1CCN(CC2CCN(c3ccc4c(c3)C(=O)N(C3CCC(=O)NC3=O)C4=O)CC2)CC1)Nc1ccc(NC(=O)c2ccc([N+](=O)[O-])o2)cc1` (stereo not drawn), the Activity in data set [1] came to 63.6%.

With `O=C1CCC(N2C(=O)c3cccc(N4CCC(CN5CCN(C(=O)COCC(=O)Nc6ccc(NC(=O)c7ccc([N+](=O)[O-])o7)cc6)CC5)C4)c3C2=O)C(=O)N1` (stereo not drawn), in data set [1], the outcome was inactive.

For the molecule `O=C(/C=C/C(=O)N1CCC(CN2CCN(c3cccc4c3C(=O)N(C3CCC(=O)NC3=O)C4=O)CC2)CC1)Nc1ccc(NC(=O)c2ccc([N+](=O)[O-])o2)cc1` (stereo not drawn), the Activity in data set [1] came to 71.1%. In data set [2], the solubility was found to be 1.562 µg/mL (≈ 2.04 µM).
